# In patent US11547761B1, “Antibody adjuvant conjugates” (The Board of Trustees of the Leland Stanford Junior …, priority 2016, dated 2023):
# Columns and labels:
# protein A = protein A (Staphylococcus aureus, UniProt P38507); details: 50 ug/ml in PBS, overnight, SDS-PAGE of beads and supernatants
# Experimental: Beads were pelleted by centrifugation, supernatant was removed, and residual liquid was removed from the beads using a fine pipette tip. Non-reducing Laemmli sample buffer (100 ul) was added to the beads. Beads and supernatants were heated to 90° C. for 5 minutes and equal fractions were analyzed by SDS-PAGE (4-12% NUPAGE gel, MOPS buffer) followed by staining with Coomassie (GelCode™ Blue, ThermoFisher). Molecular weight standard is SeeBlue® Plus 2 marker (ThermoFisher LC5925).
# [1] = tested on: human APCs (myeloid cells); test: APC-tumor co-culture / myeloid cell stimulation, surface markers by flow cytometry; format: cell-based; details: 18 hours of stimulation
# Description: (§1) Human antigen presenting cells (APCs) were negatively selected from human peripheral blood mononuclear cells obtained from healthy blood donors (Stanford Blood Center) by density gradient centrifugation using a RosetteSep Human Monocyte Enrichment Cocktail (Stem Cell Technologies) containing monoclonal antibodies against CD2, CD3, CD8, CD19, CD56, CD66b and CD235a. Immature APCs were subsequently purified to >97% purity via negative selection using an EasySep Human Monocyte Enrichment Kit without CD16 depletion containing monoclonal antibodies against CD2, CD3, CD19, CD20, CD56, CD66b, CD123 and CD235a.
# Tumor cells were resuspended in PBS with 0.1% fetal bovine serum (FBS) at 1 to 10×10^6 cells/mL. Cells were subsequently incubated with 2 μM CFSE to yield a final concentration of 1 μM. The reaction was ended after 2 minutes via the addition of 10 mL complete medium with 10% FBS and washed once with complete medium. Cells were either fixed in 2% paraformaldehyde and washed three times with PBS or left unfixed prior to freezing the cells in 10% DMSO, 20% FBS and 70% medium.
# (§2) 2×10^5 APCs were incubated with or without 6.5×10^5 autologous or allogeneic CFSE-labeled tumor cells in 96-well plates (Corning) containing IMDM medium (Gibco) supplemented with 10% fetal bovine serum, 100 U/mL penicillin, 100 μg/mL streptomycin, 2 mM L-glutamine, sodium pyruvate, non-essential amino acids, 50 μM 2-ME and, where indicated, various concentrations of anti-tumor antibody and the indicated adjuvants. Cells and cell-free supernatants were analyzed after 18 hours via flow cytometry.
# as §1, with “[…]” for “CD2, CD3, CD8, CD19, CD56, CD66b”, “[…].” for “CD235a.”, “CD14, CD16, CD40, CD86, CD123,” for “CD2, CD3, CD19, CD20, CD56, CD66b, CD123”
# as §2, with “antibody.” for “anti-tumor antibody and the indicated adjuvants.”
# (§3) 2×10^5 APCs were incubated with or without 6.5×10^5 allogeneic CFSE-labeled tumor cells in 96-well plates (Corning) containing IMDM medium (Gibco) supplemented with 10% fetal bovine serum, 100 U/mL penicillin, 100 μg/mL streptomycin, 2 mM L-glutamine, sodium pyruvate, non-essential amino acids and, where indicated, various concentrations of unconjugated CD20 antibody, and immunoconjugates of the invention were prepared according to the examples above. Cells and cell-free supernatants were analyzed after 18 hours via flow cytometry or ELISA.
# [2] = target: T1, recombinant human CD64 protein (Homo sapiens, UniProt P12314); test: ELISA binding to CD64; details: titration
# T1 construct: purchased R&D Systems
# T1 sequence (P12314 16-374): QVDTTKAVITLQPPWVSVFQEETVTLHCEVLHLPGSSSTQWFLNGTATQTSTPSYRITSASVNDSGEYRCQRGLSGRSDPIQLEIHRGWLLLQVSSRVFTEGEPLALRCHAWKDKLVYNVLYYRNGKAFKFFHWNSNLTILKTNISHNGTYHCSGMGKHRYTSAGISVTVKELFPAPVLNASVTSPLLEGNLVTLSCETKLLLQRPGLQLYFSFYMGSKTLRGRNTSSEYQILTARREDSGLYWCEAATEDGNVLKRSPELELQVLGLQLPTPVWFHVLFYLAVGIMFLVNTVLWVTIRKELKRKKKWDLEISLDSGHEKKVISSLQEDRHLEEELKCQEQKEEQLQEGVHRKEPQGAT
# Experimental: Maxysorp ELISA plates were coated overnight with 1.5 ug/ml recombinant human CD64 protein (R&D Systems). Plates were blocked with PBS containing 1% BSA, and incubated with a titration of Rituximab or Rituximab immunoconjugates (Rituximab BB-01). Bound antibodies were detected with Peroxidase conjugated AffiniPure F(ab′)2 Fragment Goat Anti-Human IgG (Jackson) using TMB color development and absorbance at 450 nm was measured after stopping the reaction.
# [3] = tested on: human APCs (myeloid cells); test: Cytokine secretion from human APCs / myeloid cells (cell free supernatants); format: cell-based; details: 18 hours
# Experimental: After 18 hours, cell free supernatants were analyzed for cytokine secretion via cytokine bead arrays; n=3. P-values≤0.05 depicted by *, P-values≤0.01 depicted by **, P-values≤0.001 depicted by ***, P-values≤0.0001 depicted by ****.
# as §2, with “Cells and cell-free supernatants were analyzed after 18 hours via flow cytometry.” left out
# While the expression of T cell stimulatory molecules such as CD40, CD86 and HLA-DR is necessary for effective T cell activation, APCs also influence the nature of the ensuing immune response through the secretion of cytokines. Therefore, the capacity of immunoconjugates to elicit cytokine secretion in human APCs following stimulation was investigated as described above.
# The capacity of these immunoconjugates to elicit cytokine secretion in human APCs following stimulation was investigated as described in Example 3 above.
# as §3, with “Cells and cell-free supernatants were analyzed after 18 hours via flow cytometry or ELISA.” left out
substance,measurement,setting,value
Rituximab [reference compound],binding to protein A,protein A,bind to protein A
same,CD86 upregulation on myeloid cells,[1]; compared with the corresponding unconjugated antibody unless the value names another comparator,the control does not
same,APC / myeloid / dendritic cell activation (overall),[1]; listed as unconjugated CD20 antibody,do not
same,binding to CD64,[2],comparable binding to CD64
same,cytokine secretion (overall),[3],do not
